This is an account of results in patent US11975072B2, “Pyropheophorbide conjugate and use thereof in the treatment of cancer and as a fluorescent marker” (INSERM (INSTITUT NATIONAL DE LA SANTÉ ET DE LA RECHERCHE …, priority 2017, dated 2024).

Series [1] is described as follows: Photophysical properties (absorption, fluorescence, singlet oxygen production, lifetimes) in ethanol. The class given is physicochemical. As to conditions: for ϕF fluorescence quantum yield: ±0.02, reference tetraphenylporphyrin in toluene; for ϕΔ quantum yield (singlet oxygen production): ±0.05, reference Rose Bengal in ethanol; for τF fluorescence lifetime: ±0.1 ns; for τΔ singlet oxygen lifetime: ±1 μs. The protocol:
The absorption spectra were measured with a UV-3600 double beam UV-visible spectrophotometer (Shimadzu, Marne La Vallée, France). The fluorescence spectra were measured with a Fluorolog FL3-222 spectrofluorimeter (Horiba Jobin Yvon, Longjumeau, France) equipped with a 450 W xenon arc lamp, with a thermostated (25° C.) cuvette holder compartment, with an R928 UV-visible photomultiplier (Hamamatsu, Japan) and with a liquid nitrogen-cooled InGaAs infrared detector (DSS-16A020L Electro-Optical System Inc, Phoenixville, PA, USA). The excitation beam is diffracted by a SPEX double-grating monochromator (1200 lines/mm blazed at 330 nm). The fluorescence was measured by the UV-visible detector via the SPEX double-grating emission monochromator (1200 lines/mm blazed at 500 nm). The production of singlet oxygen was measured by the infrared detector via the SPEX double-grating emission monochromator (600 lines/mm blazed at 1 μm) and a high-pass filter at 780 nm. All the spectra were measured using 4-face quartz cuvettes. All the emission spectra (singlet-oxygen fluorescence and luminescence) were related back to the same absorbance (less than 0.2) with the lamp and photomultiplier corrections.
The fluorescence quantum yield was determined by equation (1):
[formula] where Φf and Φfo, If and Ifo, OD and ODo, n and no, are the quantum yields, the fluorescence intensities, the optical densities, and the refractive indices of the sample and of the reference respectively.
The reference used for the calculation of the fluorescence quantum yield is tetraphenylporphyrin in toluene with a φfo of 0.11.
The quantum yield for singlet oxygen production is determined by equation (2):
[formula] where ΦΔ and ΦΔo, I and Io, OD and ODo are the quantum yields for singlet oxygen production, the singlet oxygen production intensities and the optical densities of the sample and of the reference respectively.
The reference used for the calculation of the quantum yield for singlet oxygen production is Rose Bengal in ethanol with a φΔo of 0.68.
The fluorescence lifetime experiments were carried out using, for the excitation, a pulsed laser diode emitting at 407 nm (LDH-P-C-400M, FWHM<70 ps, 1 MHz) coupled to a PDL 800-D pulse generator (PicoQuant GmbH, Berlin, Germany) and, for the detection, an SPCM-AQR-15 avalanche photodiode (EG & G, Vaudreuil, Canada) coupled to a high-pass filter at 650 nm.
The acquisition was carried out using a PicoHarp 300 module linked to a PHR-800 4-channel router (PicoQuant GmbH, Berlin, Germany). The fluorescence declines were recorded using the single photon counting method (Time Correlated Single Photon Counting TCSPC). The data were collected until 1000 accumulated counts in a channel were obtained, then analyzed using the TCSPC Fluofit software (PicoQuant GmbH, Berlin, Germany) based on an iterative reconvolution using a Levensberg-Marquandt algorithm which allows multiexponential declines to be obtained.
The singlet oxygen lifetime measurements were carried out with a Tempro-01 spectrophotometer (Horiba Jobin Yvon, Longjumeau, France) composed of a SpectraLED-415 pulsed excitation diode emitting at 415 nm, of a cuvette holder compartment, of an emission monochromator of Seya-Namioka type (600-2000 nm) and of an H10330-45 thermoelectrically regulated near infrared photomultiplier tube (Hamamatsu, Japan). The assembly is controlled by the FluoroHub-B counting module and the DataStation and DAS6 software (Horiba Jobin Yvon).
The emission spectra and the phosphorescence lifetime measurements were carried out with a Fluorolog FL3-22 spectrofluorimeter (Horiba Jobin Yvon, Longjumeau, France) equipped with a 450 W continuous xenon lamp, with a xenon flash lamp, with a thermostated (25° C.) cuvette holder compartment and with an R928 UV-visible photomultiplier (Hamamatsu, Japan). The assembly is controlled by the FluoroHub-B counting module. […]

The conditions of series [2]: in ethanol; cited from earlier work.

Turning to pyropheophorbide-a [Pyro(a)-COOH], in series [1], the “εQI (molar extinction coefficient, QI band)” value is given as 33 265 L · mol^−1 · cm^−1; the “εsoret band (molar extinction coefficient)” value is given as 76 326 L · mol^−1 · cm^−1; the “λQI (QI band absorption peak)” value is given as 668 nm; the “ϕF fluorescence quantum yield” value worked out at 0.34. Further, in series [1], the “ϕΔ quantum yield (singlet oxygen production)” value was found to be 0.52, the τF fluorescence lifetime turned out to be 6.7 ns and the “τΔ singlet oxygen lifetime” value was 13 μs.
Regarding `O=C([O-])c1c(Cl)c(Cl)c(Cl)c(Cl)c1-c1c2cc(I)c(=O)c(I)c-2oc2c(I)c([O-])c(I)cc12.[Na+].[Na+]` [Rose Bengal], the “φΔo quantum yield for singlet oxygen production of the reference” value in series [2] is reported as 0.68.
For pheophorbide-a [Pheo(a)-COOH], in series [1], the “εQI (molar extinction coefficient, QI band)” value was 32 537 L · mol^−1 · cm^−1; the “εsoret band (molar extinction coefficient)” value was 69 663 L · mol^−1 · cm^−1; the “λQI (QI band absorption peak)” value amounted to 667 nm; the “ϕF fluorescence quantum yield” value is recorded as 0.44. Also, in series [1], the “ϕΔ quantum yield (singlet oxygen production)” value is given as 0.52, the τF fluorescence lifetime stood at 5.7 ns and the “τΔ singlet oxygen lifetime” value came to 12 μs.
